According to patent US20120316105A1, “Polymyxin Derivates Useful As Antibacterial Agents” (priority 2011, published 2012):
Read-outs that look alike come from different tables or passages of the source. Bridge positions count the residues as written; N and C are the ends. Square brackets hold non-standard residues; d marks the D form. Peptide text beside a SMILES is read from it. * marks the point of attachment. Quinoline3carbonyl = O=C(c1cnc2ccccc2c1)*; X13 = N#Cc1ccc(-c2cc(C(=O)*)ccc2F)cc1; X26 = O=C(c1ccnc(-c2ccc(Cl)cc2)c1)*; X38 = O=S(=O)(c1cccc(-c2ccccc2)c1)*; X35 = N#Cc1ccc(C(=O)*)cc1-c1ccccc1; 2Naphthoyl = O=C(c1ccc2ccccc2c1)*; X24 = COc1ccc(-c2ccccc2)cc1C(=O)*; X39 = COc1ccc(C(=O)*)cc1-c1ccccc1; X7 = O=C(c1ccnc(-c2ccccc2F)c1)*; Dab = NCC[C@H](N)C(=O)O; Dap = NC[C@H](N)C(=O)O

Columns and labels:
[1] = tested on: PA-1646, polymyxin-resistant clinical isolate of Pseudomonas aeruginosa; format: cell-based; conditions: PA-1646, polymyxin-resistant clinical isolate of
Experimental: (§1) Minimum bactericidal concentration (MBC, mg/L), minimum inhibitory concentration (MIC, mg/L), and human renal proximal tubule epithelial cell line cytotoxicity concentration 50% (hRPTEC, TC50, micromolar) for compounds of Formula I are listed in Table 2. The compounds of Formula I were tested as the corresponding trifluoroacetate salt except for Example 1 which was tested as the sulfate salt. For Table 2 below: PMB=polymyxin B as the sulfate salt (Bedford Laboratories, pharmaceutical grade); PMB1=polymyxin B1 as the trifluoroacetate salt; Nona=polymyxin B nonapeptide as the trifluoroacetate salt. PMB1 and Nona were prepared using the solid phase methodology described in the experimental section herein.
(§2) The in vitro antibacterial activity of compounds of Formula I was evaluated by MIC testing according to Clinical and Laboratory Standards Institute (CLSI). See: Clinical and Laboratory Standards Institute. Methods for Dilution Antimicrobial Susceptibility Tests for Bacteria that Grow Aerobically; Approved Standard-Eighth Edition. CLSI document M7-A8 [ISBN 1-56238-689-1]. Clinical and Laboratory Standards Institute, 940 West Valley Road, Suite 1400, Wayne, Pa. 19087-1898 USA, 2006; also Clinical and Laboratory Standards Institute. Performance Standards for Antimicrobial Susceptibility Testing; Twentieth Informational Supplement. CLSI document M100-S20 [ISBN 1-56238-716-2]. Clinical and Laboratory Standards Institute. Methods for Determining Bactericidal Activity of Antimicrobial Agents; Approved Guideline. CLSI document M26-A (ISBN 1-56238-384-1). CLSI, 940 West Valley Road, Suite 1400, Wayne, Pa. 19087-1898 USA, 1999.
PA-1646 is a polymyxin-resistant clinical isolate of Pseudomonas aeruginosa obtained from JMI labs (www.jmilabs.com);

[2] = tested on: AB-1649, polymyxin-resistant clinical isolate of Acinetobacter baumannii; format: cell-based; conditions: AB-1649, polymyxin-resistant clinical isolate of
Experimental: as §1, §2
(§3) The MIC determination is a standard laboratory method for evaluating the antibacterial activity of a compound. The MIC represents the lowest drug concentration that inhibits visible growth of bacteria following overnight incubation. […] Typically, the drug concentration range is broken down into 2-fold increments (e.g. 0.06 mg/L, 0.12 mg/L, 0.25 mg/L, 0.50 mg/L, 1.0 mg/L, etc.) and the various drug concentrations are all individually incubated overnight with approximately the same number of bacteria. The MIC is then determined by visually inspecting the drug effect at each concentration, and identifying the lowest drug concentration that has inhibited bacterial growth as compared to the drug free control. Typically, bacteria continue to grow at drug concentrations lower than the MIC and don't grow at concentrations at and above the MIC.
(§4) The MIC values described in Table 2 below were derived from assays wherein each test compound was evaluated in duplicate. In cases where the duplicate values varied by 0-2-fold, the lower of the two values was reported below. Generally speaking, if the duplicate values varied by more than 2-fold, the assay was considered non-valid and was repeated until the variation between duplicate runs was ≦2-fold. In line with the CLSI guidelines referred to above, both control organisms and reference compounds were utilized in each MIC assay to provide proper quality control. MIC values generated with these control organisms and reference compounds were required to fall within a defined range for the assay to be considered valid and be included herein. Those skilled in the art will recognize that MIC values can and do vary from experiment to experiment. Generally speaking, it should be recognized that MIC values often vary +/−2-fold from experiment to experiment. While a single MIC is reported for each compound and each microorganism, the reader should not conclude that each compound was only tested once. Several of the compounds were subjected to multiple tests. The data reported in Table 2 is reflective of the compounds relative activity and different MICs may have been generated on these occasions in line with the guidelines described above.
(§5) The following bacterial strains were used in these MIC determinations: […]

[3] = tested on: AB-3167, clinical isolate of Acinetobacter baumannii; format: cell-based
Experimental: as §1, §2, §3, §4, §5

[4] = tested on: PA-1646, polymyxin-resistant clinical isolate of Pseudomonas aeruginosa; format: cell-based; conditions: PA-1646, polymyxin-resistant clinical isolate of; remark: listed apart in the source
Experimental: as §1, §2, §3, §4, §5

[5] = tested on: Pseudomonas aeruginosa strain PA01; format: cell-based; conditions: strain
Experimental: as §1, §2, §3, §4, §5

[6] = tested on: AB-1649, polymyxin-resistant clinical isolate of Acinetobacter baumannii; format: cell-based; conditions: AB-1649, polymyxin-resistant clinical isolate of; remark: listed apart in the source
Experimental: as §1, §2
AB-1649 is a polymyxin-resistant clinical isolate of Acinetobacter baumannii obtained from JMI labs (www.jmilabs.com);

[7] = tested on: EC-1, mouse virulent strain of Escherichia coli; format: cell-based; conditions: E. coli EC-1; overnight incubation, lower of duplicate values; trifluoroacetate salt (Example 1 and PMB sulfate)
Experimental: as §1, §2, §3, §4
The following bacterial strains were used in these MIC determinations:
EC-1 is a mouse virulent strain of Escherichia coli.

[8] = Cytotoxicity assay (LDH release), hRPTEC; format: cell-based, human; conditions: human
Experimental: as §1
Human Renal Proximal Tubule Epithelial cells (hRPTEC) were obtained from Lonza (Walkersville, Md., USA) and cultured in REGM (Renal Epithelial Cell Basal Medium supplemented with human epithelial growth factor, hydrocortisone, epinephrine, insulin, triiodothyronine, transferrin, gentamycin/amphotericin-B, and fetal bovine serum). The hRPTEC cells were seeded into 96-well plates and incubated at 37° C. in 5% CO2. Following a growth period of 72 hours, cells were treated with compounds at 100, 67, 44, 30, 20 and 13 micromolar for 24 hours at 37° C. in 5% CO2. The cell supernatant was then harvested for determination of LDH (lactate dehydrogenase) production. The Cytotoxicity Detection Kit from Roche was used for the measurement of LDH activity released from damaged cells. The Toxic Concentration 50% (TC50, micromolar) values were determined for each compound and compared to the control compounds (polymyxin B was used as a positive control and polymyxin B nonapepetide was used as negative control).

Compound | PA-1646 MBC [1] [mg/L] | AB-1649 MIC [2] [mg/L] | AB-3167 MIC ([3]; AB-3167, clinical isolate of) [mg/L] | PA-1646 MIC [4] [mg/L] | PA01 MIC [5] [mg/L] | AB-1649 MBC [6] [mg/L] | EC-1 MIC [7] [mg/L] | CC50 at 24 h [8] [µM] | AB-3167 MIC ([3]; A. baumannii AB-3167, overnight incubation, lower of duplicate values, trifluoroacetate salt (Example 1 and PMB sulfate)) [mg/L]
COc1ccc(C(=O)N[C@@H](CCN)C(=O)N[C@H](C(=O)N[C@@H](CN)C(=O)N[C@H]2CCNC(=O)[C@H]([C@@H](C)O)NC(=O)[C@H](CCN)NC(=O)[C@H](CCN)NC(=O)[C@H](CC(C)C)NC(=O)[C@@H](Cc3ccccc3)NC(=O)[C@H](CCN)NC2=O)[C@@H](C)O)cc1-c1ccccc1 [Example 16] (X39-[Dab]T[Dap][Dab][Dab][dF]L[Dab][Dab]T; lactam 4-C) | 2 | 2 | 0.5 | 1 | 0.5 | 2 | 0.25 | 27 | 
CC(C)C[C@@H]1NC(=O)[C@@H](Cc2ccccc2)NC(=O)[C@H](CCN)NC(=O)[C@@H](NC(=O)[C@H](CN)NC(=O)[C@@H](NC(=O)[C@H](CCN)NC(=O)c2ccnc(-c3ccccc3F)c2)[C@@H](C)O)CCNC(=O)[C@H]([C@@H](C)O)NC(=O)[C@H](CCN)NC(=O)[C@H](CCN)NC1=O [Example 5] (X7-[Dab]T[Dap][Dab][Dab][dF]L[Dab][Dab]T; lactam 4-C) | 4 | 1 |  | 2 | 0.5 | 1 | 0.125 | 83 | 0.125
CC(C)C[C@@H]1NC(=O)[C@@H](Cc2ccccc2)NC(=O)[C@H](CCN)NC(=O)[C@@H](NC(=O)[C@H](CN)NC(=O)[C@@H](NC(=O)[C@H](CCN)NC(=O)c2ccc(F)c(-c3ccc(C#N)cc3)c2)[C@@H](C)O)CCNC(=O)[C@H]([C@@H](C)O)NC(=O)[C@H](CCN)NC(=O)[C@H](CCN)NC1=O [Example 33] (X13-[Dab]T[Dap][Dab][Dab][dF]L[Dab][Dab]T; lactam 4-C) | 8 | 4 | 1 | 2 | 2 | 4 | 0.5 | 30 | 
CC(C)C[C@@H]1NC(=O)[C@@H](Cc2ccccc2)NC(=O)[C@H](CCN)NC(=O)[C@@H](NC(=O)[C@H](CN)NC(=O)[C@@H](NC(=O)[C@H](CCN)NC(=O)c2cnc3ccccc3c2)[C@@H](C)O)CCNC(=O)[C@H]([C@@H](C)O)NC(=O)[C@H](CCN)NC(=O)[C@H](CCN)NC1=O [Example 23] (Quinoline3carbonyl-[Dab]T[Dap][Dab][Dab][dF]L[Dab][Dab]T; lactam 4-C) | 4 | 4 | 0.5 | 4 | 0.25 | 8 | 0.125 | > 100 | 
CC(C)C[C@@H]1NC(=O)[C@@H](Cc2ccccc2)NC(=O)[C@H](CCN)NC(=O)[C@@H](NC(=O)[C@H](CN)NC(=O)[C@@H](NC(=O)[C@H](CCN)NC(=O)c2ccnc(-c3ccc(Cl)cc3)c2)[C@@H](C)O)CCNC(=O)[C@H]([C@@H](C)O)NC(=O)[C@H](CCN)NC(=O)[C@H](CCN)NC1=O [Example 44] (X26-[Dab]T[Dap][Dab][Dab][dF]L[Dab][Dab]T; lactam 4-C) | 1 | 1 | 0.25 | 1 | 0.5 | 1 | 0.25 | 30 | 
COc1ccc(-c2ccccc2)cc1C(=O)N[C@@H](CCN)C(=O)N[C@H](C(=O)N[C@@H](CN)C(=O)N[C@H]1CCNC(=O)[C@H]([C@@H](C)O)NC(=O)[C@H](CCN)NC(=O)[C@H](CCN)NC(=O)[C@H](CC(C)C)NC(=O)[C@@H](Cc2ccccc2)NC(=O)[C@H](CCN)NC1=O)[C@@H](C)O [Example 36] (X24-[Dab]T[Dap][Dab][Dab][dF]L[Dab][Dab]T; lactam 4-C) | 2 | 4 | 0.25 | 2 | 0.5 | 4 | 0.5 | 19 | 
CC(C)C[C@@H]1NC(=O)[C@@H](Cc2ccccc2)NC(=O)[C@H](CCN)NC(=O)[C@@H](NC(=O)[C@H](CN)NC(=O)[C@@H](NC(=O)[C@H](CCN)NS(=O)(=O)c2cccc(-c3ccccc3)c2)[C@@H](C)O)CCNC(=O)[C@H]([C@@H](C)O)NC(=O)[C@H](CCN)NC(=O)[C@H](CCN)NC1=O [Example 41] (X38-[Dab]T[Dap][Dab][Dab][dF]L[Dab][Dab]T; lactam 4-C) | 4 | 64 | 1 | 2 | 0.25 | >64 | 0.25 | 42 | 
CC(C)C[C@@H]1NC(=O)[C@@H](Cc2ccccc2)NC(=O)[C@H](CCN)NC(=O)[C@@H](NC(=O)[C@H](CN)NC(=O)[C@@H](NC(=O)[C@H](CCN)NC(=O)c2ccc3ccccc3c2)[C@@H](C)O)CCNC(=O)[C@H]([C@@H](C)O)NC(=O)[C@H](CCN)NC(=O)[C@H](CCN)NC1=O [Example 6] (2Naphthoyl-[Dab]T[Dap][Dab][Dab][dF]L[Dab][Dab]T; lactam 4-C) | 16 | 2 | 0.25 | 4 | 0.5 | 2 | 0.125 | 51 | 
CC(C)C[C@@H]1NC(=O)[C@@H](Cc2ccccc2)NC(=O)[C@H](CCN)NC(=O)[C@@H](NC(=O)[C@H](CN)NC(=O)[C@@H](NC(=O)[C@H](CCN)NC(=O)c2ccc(C#N)c(-c3ccccc3)c2)[C@@H](C)O)CCNC(=O)[C@H]([C@@H](C)O)NC(=O)[C@H](CCN)NC(=O)[C@H](CCN)NC1=O [Example 2] (X35-[Dab]T[Dap][Dab][Dab][dF]L[Dab][Dab]T; lactam 4-C) | 4 | 0.5 | 0.25 | 2 | 0.25 | 0.5 | 0.125 | 39 | 
